The text below walks through data of BindingDB's records for doi:10.1021/jm050524f (The Scripps Research Institute, 2005).

What is called EC50 is the concentration that produces a half-maximal response. Read a low EC50 as a more potent agent. For orientation: IC50 means the concentration at which inhibition is half-maximal. Low readings indicate inhibition by little substance, high ones a need for much substance.

The target of test [1] is Hypoxia-inducible factor 1-alpha (Homo sapiens, UniProt Q16665). The experiment in a line: Effective concentration to inhibit production of hypoxia inducible factor 1-alpha protein.
Hypoxia-inducible factor 1-alpha, sequence (Q16665 whole entry): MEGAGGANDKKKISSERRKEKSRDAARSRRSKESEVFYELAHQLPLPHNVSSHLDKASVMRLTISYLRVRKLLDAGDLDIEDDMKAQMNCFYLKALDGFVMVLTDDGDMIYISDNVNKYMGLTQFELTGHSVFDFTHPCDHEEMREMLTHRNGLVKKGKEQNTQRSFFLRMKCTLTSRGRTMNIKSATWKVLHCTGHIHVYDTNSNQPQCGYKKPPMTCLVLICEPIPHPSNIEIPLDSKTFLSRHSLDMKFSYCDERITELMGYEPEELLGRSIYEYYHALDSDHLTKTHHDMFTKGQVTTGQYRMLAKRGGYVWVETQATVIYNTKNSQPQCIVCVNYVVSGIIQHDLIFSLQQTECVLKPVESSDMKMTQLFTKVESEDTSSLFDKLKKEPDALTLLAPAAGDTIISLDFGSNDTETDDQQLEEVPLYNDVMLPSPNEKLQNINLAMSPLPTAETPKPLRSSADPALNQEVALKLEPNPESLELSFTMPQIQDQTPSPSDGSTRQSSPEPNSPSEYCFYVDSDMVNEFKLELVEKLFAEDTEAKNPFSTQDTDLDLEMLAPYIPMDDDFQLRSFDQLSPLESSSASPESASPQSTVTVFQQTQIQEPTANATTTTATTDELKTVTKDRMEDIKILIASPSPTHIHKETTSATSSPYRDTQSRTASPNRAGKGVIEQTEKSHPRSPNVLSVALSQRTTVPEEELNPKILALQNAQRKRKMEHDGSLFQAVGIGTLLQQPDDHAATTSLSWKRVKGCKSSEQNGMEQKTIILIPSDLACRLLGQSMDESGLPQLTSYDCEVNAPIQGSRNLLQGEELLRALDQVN
Test [2] is described as follows: Inhibitory concentration against NADH-ubiquinone oxidoreductase.
A short description of test [3]: Inhibitory concentration against NADH ubiquinone oxidoreductase.

Consider `COc1c(C(C)n2cnc3ncccc32)ccc2c1C=CC(C)(C)O2` (stereo not given) [1-[1-(5-Methoxy-2,2-dimethyl-2H-chromen-6-yl)-ethyl]-1H-imidazo[4,5-b]pyridine], for which the half-maximal effective concentration (EC50) in test [1] came to 35000 nM.

`COc1cc(COC(=O)c2ccc3c(c2)C=CC(C)(C)O3)cc(OC)c1OC` [2,2-Dimethyl-2H-chromene-6-carboxylic acid 3,4,5-trimethoxy-benzyl ester]: the IC50 in test [2] and in test [3] was 55 nM throughout.

`C=C(Cc1cc(OC)c(OC)c(OC)c1)c1ccc2c(c1)CCC(C)(C)O2` [2,2-Dimethyl-6-[1-(3,4,5-trimethoxy-benzyl)-vinyl]-chroman]: the IC50 in test [2] and in test [3] was 18 nM throughout.
